Reference: paper PMC3495945, “Org 214007-0: A Novel Non-Steroidal Selective Glucocorticoid Receptor Modulator with Full Anti-Inflammatory Properties and Improved Therapeutic Index” (PLoS ONE, 2012)

Key:
[1] = system: endometrium in estrogen-primed immature rabbits; test: McPhail test (agonistic, progestational activity); assay type: in vivo, rabbit; conditions: 0-4 scale; 5 days; MPA 0.05 mg/kg/day, Org 214007-0 0.5 mg/kg/day; n=2
Experimental: The McPhail (or anti-McPhail) test was used to evaluate potential progestational (or anti-progestational) activity of Org 214007-0 on the endometrium in estrogen-primed immature rabbits after once-daily administration. The female NZW rabbits were housed in pairs in a light- and temperature-controlled room, fed daily with 40 - 50 g standard pelleted food and with free access to tap-water. Before treatment with compounds rabbits were primed daily in the morning with a subcutaneous dose of 2 μg estradiol benzoate for 8 days. […] Transverse sections were prepared, stained with haematoxylin-eosin and evaluated microscopically. Endometrial development was scored on a 0-4 scale as follows: score 0: no development of glands; score 1: start of development of glands; score 2: clear-cut development of glands with ducts beginning to branch; score 3: about 2/3 of stroma bearing glandual tissue; score 4: more than 2/3 of stroma bearing glandular tissue. A score of 2 or higher in both rabbits was evaluated as a positive resonse.
For both the agonistic and antagonistic test immature female NZW rabbits (n=2 per treatment group) were primed with estrogen. […] One day after the last treatment the uterus was dissected and endometrial development was scored on a 0-4 scale. […]

[2] = target: T1, recombinant human glucocorticoid receptor (GR) (Homo sapiens, UniProt P04150); test: Glucocorticoid receptor fluorescence polarisation competitor binding assay; conditions: fluorescence polarization competitor binding; mean (±SD); read-out: Ki, competitive binding
T1 construct: purchased Panvera P2816
Description: (for more detailed information see Supportive Information) (SI text).

[3] = system: endometrium in estrogen-primed immature rabbits; test: anti-McPhail test (antagonistic, anti-progestational activity); assay type: in vivo, rabbit; conditions: 0-4 scale; 7 days with progesterone; RU486 4 mg/kg/day, Org 214007-0 0.5 mg/kg/day oral; n=2
Experimental: For the anti-McPhail test, the estrogen-primed rabbits were subsequently treated for 7 days with inducer progesterone (0.25 mg/kg/day s.c.) in combination with an oral treatment of either placebo, reference RU486 (4 mg/kg/day) or Org 214007-0 (0.5 mg/kg/day). The uterus preparation and evaluation of the endometrium was performed as described above.
For the antagonistic test, after oestrogen priming, rabbits were treated for 7 days with progesterone and placebo, reference RU486 or Org 214007-0. One day after the last treatment the uterus was dissected and endometrial development was scored on a 0-4 scale. […] After treatment with Org 214007-0 no reduction of the endometrial transformation was observed (score 3.31), indicative for no anti-progestagenic activity

[4] = target: T2, human estrogen receptor alpha (ERα) (Homo sapiens, UniProt P03372); test: CHO steroid receptor reporter assay, ERα / rat oxytocin-Luc; assay type: cell-based
T2 construct: expressed in transfected cells; host or cells: CHO K1
T2 sequence (P03372 1-595): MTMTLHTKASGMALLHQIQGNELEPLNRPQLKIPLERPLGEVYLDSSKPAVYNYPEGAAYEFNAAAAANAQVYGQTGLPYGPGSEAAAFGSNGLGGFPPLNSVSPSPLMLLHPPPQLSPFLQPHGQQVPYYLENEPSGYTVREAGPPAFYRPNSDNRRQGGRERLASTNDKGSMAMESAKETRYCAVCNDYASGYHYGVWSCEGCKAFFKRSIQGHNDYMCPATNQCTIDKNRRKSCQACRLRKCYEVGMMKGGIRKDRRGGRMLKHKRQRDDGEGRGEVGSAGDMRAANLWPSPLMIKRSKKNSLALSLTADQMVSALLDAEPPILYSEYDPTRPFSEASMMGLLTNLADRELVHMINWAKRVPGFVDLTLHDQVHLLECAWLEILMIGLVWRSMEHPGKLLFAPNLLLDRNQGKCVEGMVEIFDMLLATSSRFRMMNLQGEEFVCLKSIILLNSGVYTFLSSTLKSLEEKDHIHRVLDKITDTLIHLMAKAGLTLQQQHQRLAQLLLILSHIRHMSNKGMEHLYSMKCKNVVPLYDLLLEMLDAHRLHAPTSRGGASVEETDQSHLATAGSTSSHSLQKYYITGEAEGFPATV
Description: (§1) For monitoring both human steroid receptor agonistic as well as antagonistic activity of compounds, Chinese hamster ovary (CHO) K1 cells stably co-transfected with the specific human steroid receptor and its respective reporter construct were used (as previously described).
(§2) For human glucocorticoid receptor (GR)-specific activity CHO-GR B4.8 cells containing both recombinant human GR as well as a reporter construct consisting of the mouse mammary tumor virus (MMTV) promotor and the luciferase reporter gene, were used. Compound was incubated alone (in the agonistic setup) or with 50 nM dexamethasone (in the antagonistic setup) overnight. Hereafter, 200 µl medium was removed and 50 µl luciferine substrate solution from the LucLite luminescence kit (Packard, Meriden, USA) was added. […] Percentage maximal antagonistic efficacy was related to the maximal antagonistic efficacy of reference GR antagonist Org 34116. Similar procedures were followed for the other human steroid receptor assays (for more detailed information see Supportive Information) (SI text).
(§3) Similar procedures were followed for the other human steroid receptor assays containing combinations of human progesterone receptor B (PR-B) and MMTV-Luc, human androgen receptor (AR) and MMTV-Luc, human chimeric glucocorticoid-mineralocorticoid receptor (GGM, Trapp et al. (1994), Neuron 13: 1457) and MMTV-Luc, human estrogen receptor alpha (ERα) and rat oxytocin-Luc (45), and human estrogen receptor beta (ERβ) and rat oxytocin-Luc, respectively.

[5] = target: T3, human estrogen receptor beta (ERβ) (Homo sapiens, UniProt Q92731); test: CHO steroid receptor reporter assay, ERβ / rat oxytocin-Luc; assay type: cell-based; conditions: ERß
T3 construct: expressed in transfected cells; host or cells: CHO K1
Description: as §1, §2, §3

[6] = 30 mg/kg, mouse CIA experiment; cited from earlier work

T3 sequence (Q92731 whole entry): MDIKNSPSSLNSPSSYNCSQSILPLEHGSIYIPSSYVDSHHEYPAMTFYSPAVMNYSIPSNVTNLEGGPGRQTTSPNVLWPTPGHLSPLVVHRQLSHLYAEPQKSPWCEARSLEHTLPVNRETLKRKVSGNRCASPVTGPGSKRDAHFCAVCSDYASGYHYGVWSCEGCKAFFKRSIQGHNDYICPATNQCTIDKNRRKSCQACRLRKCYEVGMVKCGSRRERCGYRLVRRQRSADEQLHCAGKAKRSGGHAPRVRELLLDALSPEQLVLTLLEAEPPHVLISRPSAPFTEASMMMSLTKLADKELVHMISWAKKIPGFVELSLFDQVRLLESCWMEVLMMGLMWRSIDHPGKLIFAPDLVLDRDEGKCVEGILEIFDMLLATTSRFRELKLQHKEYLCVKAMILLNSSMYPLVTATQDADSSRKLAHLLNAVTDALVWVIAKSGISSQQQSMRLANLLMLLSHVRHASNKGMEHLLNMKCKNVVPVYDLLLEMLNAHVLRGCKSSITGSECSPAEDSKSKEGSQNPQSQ
T1 sequence (P04150 whole entry): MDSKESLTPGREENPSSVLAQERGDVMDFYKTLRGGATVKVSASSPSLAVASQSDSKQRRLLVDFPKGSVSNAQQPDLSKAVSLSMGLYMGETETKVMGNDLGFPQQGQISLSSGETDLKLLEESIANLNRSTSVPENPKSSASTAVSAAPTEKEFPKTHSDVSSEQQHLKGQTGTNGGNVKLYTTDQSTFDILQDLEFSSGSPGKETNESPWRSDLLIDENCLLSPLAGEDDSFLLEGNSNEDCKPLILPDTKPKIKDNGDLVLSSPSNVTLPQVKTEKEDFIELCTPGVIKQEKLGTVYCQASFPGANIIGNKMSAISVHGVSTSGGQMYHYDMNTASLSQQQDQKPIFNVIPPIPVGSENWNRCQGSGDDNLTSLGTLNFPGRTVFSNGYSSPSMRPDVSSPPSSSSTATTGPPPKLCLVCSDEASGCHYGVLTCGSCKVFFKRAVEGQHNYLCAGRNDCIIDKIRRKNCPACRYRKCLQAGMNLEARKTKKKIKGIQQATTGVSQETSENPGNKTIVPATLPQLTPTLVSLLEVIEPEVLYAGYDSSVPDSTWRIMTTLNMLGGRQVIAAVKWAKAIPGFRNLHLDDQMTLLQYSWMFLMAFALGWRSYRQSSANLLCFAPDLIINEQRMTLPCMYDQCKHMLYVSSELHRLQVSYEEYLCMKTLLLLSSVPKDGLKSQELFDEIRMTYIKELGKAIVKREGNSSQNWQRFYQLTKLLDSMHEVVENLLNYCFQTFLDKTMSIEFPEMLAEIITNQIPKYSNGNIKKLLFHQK

Compound | endometrial development score, agonistic test [1] | Ki [2] | endometrial development score, antagonistic test [3] | EC50 ([4]; read-out: EC50 (agonist)) | IC50 ([4]; read-out: IC50 (antagonist)) | % agonist potency ([4]; relative to reference compound) | % antagonist potency ([4]; relative to reference compound) | EC50 ([5]; read-out: EC50 (agonist)) | IC50 ([5]; read-out: IC50 (antagonist)) | % agonist potency ([5]; relative to reference compound) | % antagonist potency ([5]; relative to reference compound) | serum insulin levels [6]
Cc1nnsc1C(=O)N[C@H]1CCN2c3ccc(C#N)cc3[C@@H](C)c3ccccc3[C@@H]2C1 [Org 214007-0] | 0.5 | 2.2 nM | 3.31 | > 100 nM | > 1000 nM | <0.01% | <1.86% | > 100 nM | > 1000 nM | <0.01% | <0.9% | –
C[C@]12C=CC(=O)C=C1CC[C@@H]1[C@@H]2[C@@H](O)C[C@@]2(C)[C@H]1CC[C@]2(O)C(=O)CO [prednisolone, reference compound] | – | – | – | – | – | – | – | – | – | – | – | significantly elevated
